Experimental data as given in US10981860B2, “Caspase inhibitor and pharmaceutical composition, use and therapeutic method thereof” (Chia Tai Tianqing Pharmaceutical Group Co., Ltd., priority 2016, dated 2021).
Where two headings read alike, the source gives them in different places.

What was measured:
[1] = Mouse pharmacokinetic study (intravenous and oral); format: in vivo; settings: for half-life (in words) / in vivo exposure (in words): Examples compared to reference compound IDN-6556
Excerpt: Experimental Example 2: Mouse Pharmacokinetic Study
The mice were randomly divided into two groups (one intravenous group and one oral group) or only oral group, 3 males in each group. The compounds were formulated into the designated preparations. The intravenous preparations should be filtered to provide clear solutions, and the oral preparations can be clear or can be uniform suspensions. All animals in the intravenous group were intravenously injected with the given doses of the compound preparations through tail veins. The oral group was administrated with the given doses of the preparations by gavage.
Whole blood samples were collected from the other side of the tail vein at 8 time points (2 min, 5 min, 15 min, 30 min, 1 h, 2 h, 4 h and 8 h after administration) in the intravenous group, about 25 μL for each sample; whole blood samples were collected from the tail vein at 8 time points (2 min, 5 min, 15 min, 30 min, 1 h, 2 h, 4 h and 8 h after administration) in the oral group, about 25 μL for each sample.
[…] were added to a centrifuge tube containing anticoagulants, and centrifuged at 4° C., 3000 g for 15 min. The supernatant plasma was quickly frozen on dry ice and stored in a ⋅ refrigerator at −70° C.±10° C. until LC-MS/MS analysis was performed.
The concentration data of plasma drug for the compounds were processed with the non-compartmental model using WinNonlin™ Version 6.3.0 (Pharsight, Mountain View, Calif.) pharmacokinetic software. The peak concentration (Cmax), time to peak concentration (Tmax) and last time for quantitative were obtained directly from the blood concentration-time chart.
The following pharmacokinetic parameters were calculated by using Log-linear Trapezoidal method: elimination phase half-life (T1/2); apparent volume of distribution (Vdss) and clearance rate (CL); the average residence time of the drug in vivo from 0 to the last time point (MRT0-last); the average residence time of the drug in vivo from zero time to infinity (MRT0-inf); the area under time-plasma concentration curve from 0 to the last time point (AUC0-last); the area under time-plasma concentration curve from zero time to infinity (AUC0-inf); initial concentration (C0).
For individual plasma concentrations of less than BQL, the concentrations appeared before Tmax were calculated as 0, and the concentrations appeared after Tmax were directly excluded. All parameters and ratios were reported in the forms of three significant digits.
The pharmacokinetic parameters of this experiment were calculated according to the theoretical blood collection times and the theoretical dose concentrations as described in the protocol. The deviations between the actual dose concentrations and the theoretical concentrations were within the range of ±20%. The deviations between the actual blood collection times and the theoretical blood collection times were in conformity with the relevant SOP (the point within 1 hour after administration was within the range of ±1 min, and the others were within 5% of the theoretical time).

[2] = tested on: Anti-Fas-induced Jurkat cells; assay: Anti-Fas-induced apoptosis of Jurkat cells in vitro (Caspase 3 substrate Ac-DEVD-AMC fluorescence); format: cell-based; settings: Homo sapiens; Jurkat Clone E6-1, Anti-Fas 50 ng/mL, 24 hours, Ac-DEVD-AMC 10 μM

For `CC(C)(C)c1ccccc1NC(=O)C(=O)N1CCC(C(=O)N[C@@H](CC(=O)O)C(=O)COc2c(F)c(F)cc(F)c2F)CC1` [Example 7], the “half-life (in words)” value [1] was “significantly improved”, the “in vivo exposure (in words)” value [1] was “significantly improved” and the “oral bioavailability (in words)” value ([1]; compared to reference compound IDN-6556) was “significantly improved”. The “Area under the concentration-time curve” value ([1]; oral administration 10 mpk) was 3.657 µM·h, the Peak concentration ([1]; oral administration 10 mpk) was 1636 nM and the “Time to peak concentration” value ([1]; oral administration 10 mpk) was 0.833 h.

For `O=C(O)C[C@H](NC(=O)C1CCN(C(=O)C2CCCC2)CC1)C(=O)COc1c(F)c(F)cc(F)c1F` [Example 49], the “in vivo exposure (in words)” value [1] was “significantly improved”, the “Apparent volume of distribution” value ([1]; intravenous injection 1 mpk) was 0.653 L/kg and the “Area under the concentration-time curve” value ([1]; intravenous injection 1 mpk) was 0.852 µM·h. For the same compound, the Clearance rate ([1]; intravenous injection 1 mpk) was 38.6 mL/min/kg, the Half-life ([1]; intravenous injection 1 mpk) was 52.2 min and the “Area under the concentration-time curve” value ([1]; oral administration 10 mpk) was 1.708 µM·h. For the same compound, the Bioavailability ([1]; oral administration 10 mpk) was 20.1%, the Peak concentration ([1]; oral administration 10 mpk) was 405 nM and the “Time to peak concentration” value ([1]; oral administration 10 mpk) was 1 h.

For `O=C(O)C[C@H](NC(=O)C1CCN(C(=O)OC2CCCC2)CC1)C(=O)COc1c(F)c(F)cc(F)c1F` [Example 69], the “in vivo exposure (in words)” value [1] was “significantly improved”, the “Area under the concentration-time curve” value ([1]; oral administration 10 mpk) was 4.18 µM·h and the Peak concentration ([1]; oral administration 10 mpk) was 1993 nM. For the same compound, the “Time to peak concentration” value ([1]; oral administration 10 mpk) was 0.5 h.

For `O=C(O)C[C@H](NC(=O)C1CCN(C(=O)O[C@@H]2C[C@H]3CC[C@@H]2C3)CC1)C(=O)COc1c(F)c(F)cc(F)c1F` [Example 100], the EC50 [2] was 31.5 nM.

With `O=C(O)C[C@H](NC(=O)C1CCN(C(=O)C(=O)Nc2cc(Cl)ccc2Cl)CC1)C(=O)COc1c(F)c(F)cc(F)c1F` [Example 101] the EC50 [2] was 61.3 nM.

In the case of `O=C(O)C[C@H](NC(=O)C1CCN(C(=O)Oc2cccc(Cl)c2Cl)CC1)C(=O)COc1c(F)c(F)cc(F)c1F` [Example 103], the EC50 [2] is reported as 19.8 nM.

`O=C(O)C[C@H](NC(=O)C1CCN(c2nc3cc(F)ccc3o2)CC1)C(=O)COc1c(F)c(F)cc(F)c1F` [Example 104] gave an EC50 [2] of 29.8 nM.

With `O=C(O)C[C@H](NC(=O)CC1CN(C(=O)C2CCCC2)C1)C(=O)COc1c(F)c(F)cc(F)c1F` [Example 105] the EC50 [2] was 27.6 nM.

`O=C(O)C[C@H](NC(=O)C1CC2(CCN(C(=O)C3CCCC3)CC2)C1)C(=O)COc1c(F)c(F)cc(F)c1F` [Example 106] showed an EC50 [2] of 17.5 nM.

Work on `CC(C)(C)c1ccccc1NC(=O)C(=O)N1CCCO[C@H](C(=O)N[C@@H](CC(=O)O)C(=O)COc2c(F)c(F)cc(F)c2F)C1` [Example 109] yielded an EC50 [2] of 192 nM.

`CC(C)(C)c1ccccc1NC(=O)C(=O)N1CCCO[C@@H](C(=O)N[C@@H](CC(=O)O)C(=O)COc2c(F)c(F)cc(F)c2F)C1` [Example 110] gave an EC50 [2] of 383 nM.

With `CC(C)(C)c1ccccc1NC(=O)C(=O)N1CCCC[C@](C)(C(=O)N[C@@H](CC(=O)O)C(=O)COc2c(F)c(F)cc(F)c2F)C1` [Example 111] the EC50 [2] was 23 nM.

Compound `CC(C)(C)c1ccccc1NC(=O)C(=O)N1CCCC[C@@](C)(C(=O)N[C@@H](CC(=O)O)C(=O)COc2c(F)c(F)cc(F)c2F)C1` [Example 112] has an EC50 [2] of 165 nM.

In the case of `CC(C)(C)c1ccccc1NC(=O)C(=O)N1CCCCC[C@@H](C(=O)N[C@@H](CC(=O)O)C(=O)COc2c(F)c(F)cc(F)c2F)C1` [Example 113], the EC50 [2] is reported as 46.2 nM.

`CC(C)(C)c1ccccc1NC(=O)C(=O)N1CCCCC[C@H](C(=O)N[C@@H](CC(=O)O)C(=O)COc2c(F)c(F)cc(F)c2F)C1` [Example 114] showed an EC50 [2] of 66.3 nM.

`O=C(O)C[C@H](NC(=O)[C@@H]1CCCCN(C(=O)c2noc3ccccc23)C1)C(=O)COc1c(F)c(F)cc(F)c1F` [Example 122] showed an EC50 [2] of 5.8 nM.

Compound `CC(C)(C)c1ccccc1NC(=O)C(=O)N1CCOC[C@@H](C(=O)N[C@@H](CC(=O)O)C(=O)COc2c(F)c(F)cc(F)c2F)C1` [Example 123] has an EC50 [2] of 38.9 nM.

Work on `CC(C)(C)c1ccccc1NC(=O)C(=O)N1CCOC[C@H](C(=O)N[C@@H](CC(=O)O)C(=O)COc2c(F)c(F)cc(F)c2F)C1` [Example 124] yielded an EC50 [2] of 28.7 nM.

Compound `O=C(O)C[C@H](NC(=O)[C@H]1COCCN(C(=O)c2cc(-c3ccccc3Cl)on2)C1)C(=O)COc1c(F)c(F)cc(F)c1F` [Example 125] has an EC50 [2] of 16.2 nM.

Compound `O=C(O)C[C@H](NC(=O)[C@@H]1COCCN(C(=O)c2cc(-c3ccccc3Cl)on2)C1)C(=O)COc1c(F)c(F)cc(F)c1F` [Example 126] has an EC50 [2] of 9.37 nM.

With `O=C(O)C[C@H](NC(=O)[C@H]1COCCN(C(=O)c2noc3ccccc23)C1)C(=O)COc1c(F)c(F)cc(F)c1F` [Example 127] the EC50 [2] was 7.14 nM.

With `O=C(O)C[C@H](NC(=O)[C@@H]1COCCN(C(=O)c2noc3ccccc23)C1)C(=O)COc1c(F)c(F)cc(F)c1F` [Example 128] the EC50 [2] was 9.15 nM.

Work on `O=C(O)C[C@H](NC(=O)[C@H]1COCCN(C(=O)C(=O)Nc2ccccc2Cl)C1)C(=O)COc1c(F)c(F)cc(F)c1F` [Example 129] yielded an EC50 [2] of 5.65 nM.

For `O=C(O)C[C@H](NC(=O)[C@@H]1COCCN(C(=O)C(=O)Nc2ccccc2Cl)C1)C(=O)COc1c(F)c(F)cc(F)c1F` [Example 130], the EC50 [2] was 8.1 nM.

With `C[C@H](NC(=O)C(=O)Nc1ccccc1C(C)(C)C)C(=O)N[C@@H](CC(=O)O)C(=O)COc1c(F)c(F)cc(F)c1F` [IDN-6556, reference compound] the “half-life (in words)” value [1] was “relatively short”, the “in vivo exposure (in words)” value [1] was “low” and the “Apparent volume of distribution” value ([1]; intravenous injection 1 mpk) was 0.82 L/kg. For the same compound, the “Area under the concentration-time curve” value ([1]; intravenous injection 1 mpk) was 0.446 µM·h, the Clearance rate ([1]; intravenous injection 1 mpk) was 106 mL/min/kg and the Half-life ([1]; intravenous injection 1 mpk) was 15 min. The Bioavailability ([1]; male, plasma, 10 mg/kg, oral administration 10 mpk, read-out: Bioavailability) was ≤ 4%, the “Area under the concentration-time curve” value ([1]; oral administration 10 mpk) was 0.197 µM·h and the Bioavailability ([1]; oral administration 10 mpk) was 4.4%. The Peak concentration ([1]; oral administration 10 mpk) was 227 nM and the “Time to peak concentration” value ([1]; oral administration 10 mpk) was 0.25 h.
